These are literature values, as cited in patent US9168226B1, “Injectable particle” (priority 2015, dated 2015).

Values after ≈ are worked out from the molar mass of the structure shown. Like-named read-outs stand apart in the source and are kept apart here.

As to `Cc1nc(Nc2ncc(C(=O)Nc3c(C)cccc3Cl)s2)cc(N2CCN(CCO)CC2)n1` [dasatinib, Dasatinib], the aqueous solubility was 18400 µg/mL (≈ 37.7 mM) (pH 2.6) and 8 µg/mL (≈ 0.0164 mM) (pH 6.0).

The term aqueous solubility denotes the dissolved amount per volume that the medium holds.
